Measurements: article PMC9481563, “Structural insights into the pSer/pThr dependent regulation of the SHP2 tyrosine phosphatase in insulin and CD28 signaling” (Nature Communications, 2022)

Key:
[1] = target: T1, PTPRε first phosphatase domain, C335S (Homo sapiens, UniProt P23469, C335S); assay: biochemical; type: binding; details: competitive FP titration vs CF-ppIRS1 100 nM, protein fixed, unlabelled peptide varied; n = 3 technical replicates
T1 construct: PTPRε (P23469 first domain: 107–399); MBP; made in house; host or cells: E. coli BL21 (DE3)
T1 sequence (P23469 107-399 C335S): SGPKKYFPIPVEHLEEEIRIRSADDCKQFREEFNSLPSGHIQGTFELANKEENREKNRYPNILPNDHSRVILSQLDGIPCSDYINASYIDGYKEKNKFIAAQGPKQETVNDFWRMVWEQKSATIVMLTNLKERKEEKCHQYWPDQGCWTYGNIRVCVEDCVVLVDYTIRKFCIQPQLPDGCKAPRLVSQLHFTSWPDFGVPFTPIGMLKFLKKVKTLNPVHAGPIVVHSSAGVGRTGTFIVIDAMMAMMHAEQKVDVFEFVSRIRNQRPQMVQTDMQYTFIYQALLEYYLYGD
Excerpt: (§1) The two SH2 domains of PI3KR1 (UniProt P27986; nSH2: 321−433 cSH2: 614–724) were cloned from HEK293T cDNA pool, and subsequently ligated into a modified pET vector encoding maltose binding protein (MBP) tag on the N-terminal and a hexa-His tag on the C-terminal end of the construct. Similarly, the catalytic, tyrosine phosphatase domains of PTPRε (P23469 first domain: 107–399) and PTP1B (P18031; 1–229) were cloned from a HEK293T cDNA pool, and inserted into a pBH4 vector encoding an N-terminal His6 tag (for the final binding experiments, an MBP-tagged version of PTPRε was employed). […] Wild-type C-terminal FLAG-tagged human IRS1 was cloned between HindIII-NotI sites of pcDNA3.1(+) vector (#V79020 Invitrogen, Waltham MA USA). Ser/Ala mutant IRS1 was generated by replacing the region of S616/S636/S666/S736 positions with a cassette carrying S616A/S636A/S666A/S736A mutations. All constructs were validated by complete Sanger sequencing before protein expression and purification. The oligonucleotide sequences used are shown on Supplementary table 4.
(§2) Fluorescence polarization was always measured in triplicates, on black Corning low volume round bottom 384-well plates (with 10 ul volumes), using a BioTek Cytatation 5 reader, with the green fluorescent protein (GFP) cube filter set (ex: 485/20, em: 528/20, gain: 50, height: 7.5). Fluorescence polarization data was evaluated on Origin 2018. The dissociation constants (Kd) were determined by using the appropriate quadratic and cubic equations inserted as a user-defined function and applying nonlinear fit until convergence. The fitting formulae are shown at Supplementary note 1. Kd ratio distributions for Fig. 6 were calculated using a Monte-Carlo approach (Supplementary note 2).
(§3) Supplementary note 1. Curve fitting of fluorescence polarization (FP) measurements.
(§4) To evaluate polarization values from direct and competitive titrations, we used the following fitting formulae in Origin 2018, as detailed below.
(§5) Direct titration curves were fitted according to the following formula: […]
(§6) Where Imin is the minimal anisotropy, Imax is the (asymptotically estimated) maximal intensity. K0 is the starting concentration of the protein, while T0 is the (fixed) concentration of the labelled peptide and Kd is the dissociation constant.
(§7) Competitive titration curves were fitted with a different formula (In addition to those defined above, constants KdT KdB B0 T0 and D0 here refer to the Kd derived from the direct titration, the unknown Kd of the analyte, the labelled peptide concentration, the competitor peptide concentration as well as the protein concentration, respectively).
(§8) The ± sign refers to two different scenarios, depending on the sign of discriminant (KdT > KdB or […]). For unknown analytes, the choice of sign is not arbitrary, as the fitting will not converge unless the appropriate formula is chosen: […]
(§9) Where A, B and C correspond to the following expressions: […]

[2] = target: T2, PTP1B catalytic domain, C215S (Homo sapiens, UniProt P18031, C215S); assay: biochemical; type: binding; details: competitive FP titration vs CF-ppIRS1 100 nM, protein fixed, unlabelled peptide varied; n = 3 technical replicates
T2 sequence (P18031 1-229 C215S): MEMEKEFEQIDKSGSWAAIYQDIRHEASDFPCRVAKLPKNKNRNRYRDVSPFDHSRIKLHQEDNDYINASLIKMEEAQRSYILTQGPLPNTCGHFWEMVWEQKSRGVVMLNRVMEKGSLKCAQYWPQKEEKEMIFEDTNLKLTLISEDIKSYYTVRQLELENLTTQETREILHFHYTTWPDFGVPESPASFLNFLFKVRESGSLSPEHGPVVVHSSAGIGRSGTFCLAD
Excerpt: as §1, §2, §3, §4, §5, §6, §7, §8, §9

With `CSCC[C@H](NC(=O)[C@H](Cc1ccc(OP(=O)(O)O)cc1)NC(=O)[C@H](CC(=O)O)NC(=O)[C@H](CO)NC(=O)[C@H](Cc1c[nH]cn1)NC(=O)[C@H](CC(C)C)NC(=O)[C@H](CC(C)C)NC(=O)[C@H](CCCNC(=N)N)NC(=O)[C@H](CO)NC(=O)[C@@H](N)CCCNC(=N)N)C(=O)N[C@@H](CC(N)=O)C(=O)N[C@@H](CCSC)C(=O)N[C@H](C(=O)N1CCC[C@H]1C(=O)N[C@@H](CCCNC(=N)N)C(=O)N[C@@H](CCCNC(=N)N)C(=O)O)[C@@H](C)O` [p0CD28] the Kd [1] was 1180 ± 100 nM.

`CSCC[C@H](NC(=O)[C@@H]1CCCN1C(=O)[C@H](CCSC)NC(=O)[C@H](Cc1ccc(OP(=O)(O)O)cc1)NC(=O)[C@H](CC(=O)O)NC(=O)CNC(=O)[C@H](CO)NC(=O)CNC(=O)[C@H](CCCCN)NC(=O)[C@H](CCCNC(=N)N)NC(=O)CN)C(=O)N[C@@H](CO)C(=O)N1CCC[C@H]1C(=O)N[C@@H](CCCCN)C(=O)N[C@@H](CO)C(=O)O` [p0IRS1] was tested, and the Kd [2] was 1140 ± 85.1 nM and the Kd [1] was 36000 ± 2440 nM.

Work on `CSCC[C@H](NC(=O)[C@H](Cc1ccc(OP(=O)(O)O)cc1)NC(=O)[C@H](CC(=O)O)NC(=O)[C@H](CO)NC(=O)[C@H](Cc1c[nH]cn1)NC(=O)[C@H](CC(C)C)NC(=O)[C@H](CC(C)C)NC(=O)[C@H](CCCNC(=N)N)NC(=O)[C@H](CO)NC(=O)[C@@H](N)CCCNC(=N)N)C(=O)N[C@@H](CC(N)=O)C(=O)N[C@@H](CCSC)C(=O)N[C@H](C(=O)N1CCC[C@H]1C(=O)N[C@@H](CCCNC(=N)N)C(=O)N[C@@H](CCCNC(=N)N)C(=O)O)[C@@H](C)OP(=O)(O)O` [ppCD28] yielded a Kd [1] of 1240 ± 80 nM.

`CSCC[C@H](NC(=O)[C@@H]1CCCN1C(=O)[C@H](CCSC)NC(=O)[C@H](Cc1ccc(OP(=O)(O)O)cc1)NC(=O)[C@H](CC(=O)O)NC(=O)CNC(=O)[C@H](CO)NC(=O)CNC(=O)[C@H](CCCCN)NC(=O)[C@H](CCCNC(=N)N)NC(=O)CN)C(=O)N[C@@H](COP(=O)(O)O)C(=O)N1CCC[C@H]1C(=O)N[C@@H](CCCCN)C(=O)N[C@@H](CO)C(=O)O` [ppIRS1] gave a Kd [2] of 61.3 ± 10.2 nM and a Kd [1] of 16500 ± 1700 nM.
